# In patent US6967196B1, “Sulfonamide compounds and uses thereof” (Bristol-Myers Squibb Company, priority 1999, dated 2005):
# Where a name gives a salt, the structure may show the parent alone. Read-outs that look alike come from different tables or passages of the source.
# Tested on: amyloid β production in transfected H4 (human neuroglioma) cells stably expressing APP constructs
# Test: In vitro cell-based assay of inhibitors of amyloid β production (ELISA)
# Details: transfected H4 cells stably expressing APP, approximately 16 hours incubation, amyloid β in medium by ELISA, Table B, read-out: ACTIVITY (IC50, inhibition of amyloid β production)
# How it was run: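 Aβ secreted into the medium was determined by a two-antibody ELISA specific for the Aβ C-terminus, calibrated with known Aβ amounts. Before that, compounds (10-100 μM initially) were left on the cells for roughly 16 hours.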
SMILES,IC50,"IC50 (Homo sapiens, 16 h)",other results
"C[C@@H]1CCC[C@H](C)N1CCCOc1ccccc1CN(c1ccccc1)S(=O)(=O)c1ccc(Cl)cc1 [Example 306, 4-Chloro-N-(2-{3-[(2R,6S)-2,6-dimethylpiperidinyl]propoxy}benzyl)-N-phenylbenzenesulfonamide Hydrochloride]",50 to 100 nM,–,–
"O=C1CCN(CCCOc2ccccc2CN(c2ccccc2)S(=O)(=O)c2ccc(Cl)cc2)CC1 [Example 307, 4-Chloro-N-{2-[3-(4-oxo-1-piperidinyl)propoxy]benzyl}-N-phenylbenzenesulfonamide Hydrochloride]",50 to 100 nM,–,–
"O=S(=O)(c1ccc(Cl)cc1)N(Cc1cc(Cl)ccc1OCCCN1CCC(O)CC1)c1ccccc1 [Example 309, 4-Chloro-N-{5-chloro-2-[3-(4-hydroxy-1-piperidinyl)propoxy]benzyl}-N-phenylbenzenesulfonamide Hydrochloride]",50 to 100 nM,–,–
"O=S(=O)(c1ccc(Cl)cc1)N(Cc1ccccc1OCCCN1CCCC(O)C1)c1ccccc1 (centres unmarked) [Example 310, 4-Chloro-N-{2-[3-(3-hydroxy-1-piperidinyl)propoxy]benzyl}-N-phenylbenzenesulfonamide Hydrochloride]",50 to 100 nM,–,–
"O=S(=O)(c1ccc(Cl)cc1)N(Cc1ccccc1OCCCN1CCC(CO)CC1)c1ccccc1 [Example 311, 4-Chloro-N-(2-{3-[4-(hydroxymethyl)-1-piperidinyl]propoxy}benzyl)-N-phenylbenzenesulfonamide Hydrochloride]",50 to 100 nM,–,–
"CC1(O)CCN(CCCOc2ccccc2CN(c2ccccc2)S(=O)(=O)c2ccc(Cl)cc2)CC1 [Example 312, 4-Chloro-N-{2-[3-(4-hydroxy-4-methyl-1-piperidinyl)propoxy]benzyl}-N-phenylbenzenesulfonamide Hydrochloride]",50 to 100 nM,–,–
"O=S1(=O)CCN(CCCOc2ccccc2CN(c2ccccc2)S(=O)(=O)c2ccc(Cl)cc2)CC1 [Example 313, 4-Chloro-N-{2-[3-(1,1-dioxido-4-thiomorpholinyl)propoxy]benzyl}-N-phenylbenzenesulfonamide Hydrochloride]",–,–,IC50 (Hydrochloride): 50 to 100 nM
"CC(c1ccccc1OCCCn1ccnc1)N(c1cc(F)ccc1F)S(=O)(=O)c1ccc(Cl)cc1 (centres unmarked) [Example 321, 4-Chloro-N-(2,5-difluorophenyl)-N-1-{2-[3-(1H-imidazol-1-yl)propoxy]phenyl}ethyl)benzenesulfonamide Hydrochloride]",50 to 100 nM,–,–
"CC(=O)SCCCOc1ccccc1CN(c1ccccc1)S(=O)(=O)c1ccc(Cl)cc1 [Example 341, S{3-[2-({[(4-chlorophenyl)sulfonyl]anilino}methyl)phenoxy]propyl}ethanethioate]",50 to 100 nM,–,–
"CC(c1ccccc1OCCCNC(=O)c1cccnc1)N(c1cc(F)ccc1F)S(=O)(=O)c1ccc(Cl)cc1 (centres unmarked) [Example 359, N-{3-[2-(1-{[(4-chlorophenyl)sulfonyl]-2,5-difluoroanilino}ethyl)phenoxy]propyl}nicotinamide]",50 to 100 nM,–,–
"CC(c1ccccc1OCCCN(C)C(=O)c1cccnc1)N(c1cc(F)ccc1F)S(=O)(=O)c1ccc(Cl)cc1 (centres unmarked) [Example 360, N-{3-[2-(1-{[(4-chlorophenyl)sulfonyl]-2,5-difluoroanilino}ethyl)phenoxy]propyl}-N-methylnicotinamide]",50 to 100 nM,–,–
"C[C@H](c1ccccc1OCCCN(C)C(=O)c1cccnc1)N(c1cc(F)ccc1F)S(=O)(=O)c1ccc(Cl)cc1 [Example 363, N-{3-[2-((1R)-1-{[(4-chlorophenyl)sulfonyl]-2,5-difluoroanilino}ethyl)phenoxy]propyl}-N-methylnicotinamide Hydrochloride]",50 to 100 nM,–,–
"CN(CCCOc1ccccc1CN(c1cc(F)ccc1F)S(=O)(=O)c1ccc(Cl)cc1)C(=O)CCCCCN [Example 366, 6-Amino-N-{3-[2-({[(4-chlorophenyl)sulfonyl]-2,5-difluoroanilino}methyl)phenoxy]propyl]-N-methylhexanamide Hydrochloride]",50 to 100 nM,–,–
"CC(c1ccccc1OCCCC(=O)O)N(c1cc(F)ccc1F)S(=O)(=O)c1ccc(Cl)cc1 (centres unmarked) [Example 377, 4-[2-(1-{[(4-Chlorophenyl)sulfonyl]-2,5-difluoroanilino}ethyl)phenoxy]butanoic Acid]",50 to 100 nM,–,–
"CNC(=O)CCCOc1ccccc1C(C)N(c1cc(F)ccc1F)S(=O)(=O)c1ccc(Cl)cc1 (centres unmarked) [Example 378, 4-[2-(1-{[(4-Chlorophenyl)sulfonyl]-2,5-difluoroanilino}ethyl)phenoxy]-N-methylbutanamide]",50 to 100 nM,–,–
"CONC(=O)CCCOc1ccccc1C(C)N(c1cc(F)ccc1F)S(=O)(=O)c1ccc(Cl)cc1 (centres unmarked) [Example 379, 4-[2-(1-{[(4-Chlorophenyl)sulfonyl]-2,5-difluoroanilino}ethyl)phenoxy]-N-methoxybutanamide]",50 to 100 nM,–,–

SMILES,IC50,"IC50 (Homo sapiens, 16 h)",other results
"C[C@H](c1ccc(F)cc1COCc1cccnc1)N(c1cc(F)ccc1F)S(=O)(=O)c1ccc(Cl)cc1 [Example 380, 4-chloro-N-(2,5-difluorophenyl)-N-((1R)-1-{4-fluoro-2-[(3-pyridinylmethoxy)methyl]phenyl}ethyl)benzenesulfonamide]",–,50 to 100 nM,–
"CNC(=O)COc1ccccc1C(C)N(c1cc(F)ccc1F)S(=O)(=O)c1ccc(Cl)cc1 (centres unmarked) [Example 381, [2-(1-{[(4-Chlorophenyl)sulfonyl]-2,5-difluoroanilino}ethyl)phenoxy]-N-methylacetamide]",50 to 100 nM,–,–
"CONC(=O)COc1ccccc1C(C)N(c1cc(F)ccc1F)S(=O)(=O)c1ccc(Cl)cc1 (centres unmarked) [Example 382, [2-(1-{[(4-Chlorophenyl)sulfonyl]-2,5-difluoroanilino}ethyl)phenoxy]-N-methoxyacetamide]",50 to 100 nM,–,–
"CC(c1ccccc1OCCCCN(C)C(=O)CSc1ccccc1)N(c1cc(F)ccc1F)S(=O)(=O)c1ccc(Cl)cc1 (centres unmarked) [Example 384, N-{4-[2-(1-{[(4-chlorophenyl)sulfonyl]-2,5-difluoroanilino}ethyl)phenoxy]butyl}-N-methyl-2-(phenylsulfanyl)acetamide]",–,50 to 100 nM,–
"CC(NC(=O)OCCc1cc(F)ccc1[C@@H](C)N(c1cc(F)ccc1F)S(=O)(=O)c1ccc(Cl)cc1)c1ccccc1 (stereo partly drawn) [Example 385, 2-[2-((1R)-1-{[(4-chlorophenyl)sulfonyl]-2,5-difluoroanilino}ethyl)-5-fluorophenyl]ethyl 1 phenylethylcarbamate]",–,50 to 100 nM,–
"CC(c1ccccc1OCCCN(C)C(=O)C12CCC(C)(C(=O)O1)C2(C)C)N(c1cc(F)ccc1F)S(=O)(=O)c1ccc(Cl)cc1 (centres unmarked) [Example 387, N-{3-[2-(1-{[(4-chlorophenyl)sulfonyl]-2,5-difluoroanilino}ethyl)phenoxy]propyl}-N,4,7,7-tetramethyl-3-oxo-2-oxabicyclo[2.2.1]heptane-1-carboxamide]",–,50 to 100 nM,–
"C[C@H](c1ccccc1CCC(=O)NCc1ccc2c(c1)OCO2)N(c1cc(F)ccc1F)S(=O)(=O)c1ccc(Cl)cc1 [Example 388, N-(1,3-benzodioxol-5-ylmethyl)-3-[2-((1R)-1-{[(4-chlorophenyl)sulfonyl]-2,5-difluoroanilino}ethyl)phenyl]propanamide]",–,50 to 100 nM,–
"C[C@H](c1ccccc1CCOC(=O)NCc1ccccc1)N(c1cc(F)ccc1F)S(=O)(=O)c1ccc(Cl)cc1 [Example 389, 2-[2-((1R)-1-{[(4-chlorophenyl)sulfonyl]-2,5-difluoroanilino}ethyl)phenyl]ethyl benzylcarbamate]",–,50 to 100 nM,–
C[C@H](c1ccccc1Cn1ncnn1)N(c1cc(F)ccc1F)S(=O)(=O)c1ccc(Cl)cc1 [Example 396],–,50 to 100 nM,–
"CC(c1ccccc1OCCN(C)C(=O)N(C)C)N(c1cc(F)ccc1F)S(=O)(=O)c1ccc(Cl)cc1 (centres unmarked) [Example 397, 4-chloro-N-(2,5-difluorophenyl)-N-[1-(2-{2-[[(dimethylamino)carbonyl](methyl)amino]ethoxy}phenyl)ethyl]benzenesulfonamide]",–,50 to 100 nM,–
"CC(C)CNC(=O)OCc1cc(F)ccc1[C@@H](C)N(c1cc(F)ccc1F)S(=O)(=O)c1ccc(Cl)cc1 [Example 398, 2-((1R)-1-{[(4-chlorophenyl)sulfonyl]-2,5-difluoroanilino}ethyl)-5-fluorobenzyl isobutylcarbamate]",–,50 to 100 nM,–
"O=C1CCC(=O)N1CCCOc1ccccc1CN(c1cc(F)ccc1F)S(=O)(=O)c1ccc(Cl)cc1 [Example 399, 4-chloro-N-(2,5-difluorophenyl)-N-{2-[3-(2,5-dioxo-1-pyrrolidinyl)propoxy]benzyl}benzenesulfonamide]",–,50 to 100 nM,–
"C[C@H](c1ccc(F)cc1COCc1ccccn1)N(c1cc(F)ccc1F)S(=O)(=O)c1ccc(Cl)cc1 [Example 400, 4-chloro-N-(2,5-difluorophenyl)-N-((1R)-1-{4-fluoro-2-[(2-pyridinylmethoxy)methyl]phenyl}ethyl)benzenesulfonamide]",–,50 to 100 nM,–
"C[C@H](c1ccccc1CCC(=O)NC1CCCCC1)N(c1cc(F)ccc1F)S(=O)(=O)c1ccc(Cl)cc1 [Example 401, 3-[2-((1R)-1-{[(4-chlorophenyl)sulfonyl]-2,5-difluoroanilino}ethyl)phenyl]-N-cyclohexylpropanamide]",–,50 to 100 nM,–
"CC(CNC(=O)OCCc1ccccc1[C@@H](C)N(c1cc(F)ccc1F)S(=O)(=O)c1ccc(Cl)cc1)c1ccccc1 (stereo partly drawn) [Example 402, 2-[2-((1R)-1-{[(4-chlorophenyl)sulfonyl]-2,5-difluoroanilino}ethyl)phenyl]ethyl 2-phenylpropylcarbamate]",–,50 to 100 nM,–
"C[C@H](c1ccccc1CCC(=O)Nc1ccccc1)N(c1cc(F)ccc1F)S(=O)(=O)c1ccc(Cl)cc1 [Example 403, 3-[2-((1R)-1-{[(4-chlorophenyl)sulfonyl]-2,5-difluoroanilino}ethyl)phenyl]-N-phenylpropanamide]",–,50 to 100 nM,–
